Source: patent publication US8884032B2, “Trioxane monomers and dimers” (The Johns Hopkins University, priority 2009, dated 2014)
“And” between values parts separate entries of the source, which are not always exact repeats. Equal entries are not always repeated. Marks after values point to notes of the source that are not given here.

Tests used:
[1] = test system: Plasmodium berghei, ANKA strain; assay: Antimalarial efficacy of a single oral dose of trioxane combined with mefloquine hydrochloride in Plasmodium berghei-infected mice (Table 1); type: in vivo
Experimental: (§1) Each trioxane 2b, 3, 4a, and 4b (0.90 mg) was dissolved in 0.11 mL of 7:3 Tween 80:ethanol and then diluted with 1.10 mL of water for oral administration to 5-week old C57BL/6J male mice (from the Jackson Laboratory) weighing about 22 g that were infected intraperitoneally on day 0 with the Plasmodium berghei, ANKA strain (2×10^7 parasitized erythrocytes). Chen et al., 2006.
(§2) Each of five mice in a group was treated orally 24 h post-infection with a single dose of 0.20 mL (0.20 mL/1.21 mL×0.9 mg=0.15 mg) of diluted compound solution, corresponding to a dose of 6.8 mg/kg, combined with 20 mg/kg of mefloquine hydrochloride. Determining blood parasitemia levels, as well as monitoring the duration of animal survival compared to survival time of animals receiving no drug, are both widely accepted as measures of a drug's efficacy in antimalarial drug development. […] Animals receiving no drug died on days 6-7 post-infection. A widely accepted yardstick of cure (i.e., 100% efficacy) is survival of animals to day 30 post-infection, with no detectable malaria parasites in the animal's blood at that time.
Average survival results are summarized in Table 1, including single oral doses of 13 mg/kg of trioxane combined with 13 mg/kg of mefloquine hydrochloride. The clinically used monomeric water-soluble trioxane drug 2c and the synthetic trioxolane peroxide drug development candidate OZ277 (9) maleate are included as monotherapy reference compounds.

[2] = test system: Plasmodium berghei, ANKA malaria strain; assay: Antimalarial efficacy of a single oral dose (7.1 mg/kg) of trioxane combined with mefloquine hydrochloride (21 mg/kg) in Plasmodium berghei-infected mice (Table 2); type: in vivo
Experimental: (§3) Each trioxane dimer 12a-12c (0.90 mg) was dissolved in 0.11 mL of 7:3 Tween 80:ethanol and then diluted with 1.10 mL of distilled water for oral administration to 5-week-old C57BL/6J male mice (Jackson Laboratory) weighing about 21 g that were infected ip on day 0 with the Plasmodium berghei, ANKA malaria strain (2×10^7 parasitized erythrocytes) [Chen et al., 2006]. Each of five mice in a group was treated orally 24 h post-infection with a single dose of 0.20 mL (0.20 mL/1.21 mL×0.9 mg=0.15 mg) of diluted compound solution, corresponding to a dose of 7.1 mg/kg, combined with 21 mg/kg of mefloquine hydrochloride. Both determining blood parasitemia levels, as well as monitoring the duration of animal survival compared with survival time of infected animals receiving no drug, are widely accepted measures of drug efficacy in antimalarial drug development. […] The average survival time of the animals receiving no drug was 15.8 days post-infection. […] Widely accepted indications of complete cure (i.e. 100% efficacy) are survival of animals to day 30 post-infection with no detectable malaria parasites in the animal's blood at that time.

[3] = Overt toxicity, behavioral change and body weight in treated malaria-infected mice (dimer ester study); type: in vivo; settings: 7.1 mg/kg trioxane + 21 mg/kg mefloquine hydrochloride, mice surviving 30 days
Experimental: as §3

[4] = Thermal stability in the absence of solvent (1H NMR); type: physicochemical; settings: neat solid
Description: Referring now to Scheme 3, C-10 acetate 2d was converted into C-10-allyl derivative 7 and then, via hydroboration followed by oxidation, into monomeric trioxane carboxylic acid 8. Jung et al, 2003. Monomeric trioxane carboxylic acid 8 can be transformed in one step directly into a diverse library of monomeric trioxane amides. Jung et al, 2003. For example, one-step amidation of carboxylic acid 8 produced trioxane fluoroaryl amide 4a, a monomeric version of dimer fluoroaryl amide 3 (Scheme 3). In the same way, monomer trioxane fluoroanilide 4b was prepared directly and in good yield from carboxylic acid 8 (Scheme 3). The overall yield of 4b is approximately 48% from natural trioxane 1, and scale up to multigram or even kilogram amounts is expected to be straightforward. […]
Referring once again to Scheme 4, dihydroartemisinin acetate 2d, prepared from natural trioxane 1 in near quantitative yield, Posner et al., 2003, underwent tin-promoted dimerization, Posner et al., 2003, with bis-allylic silane 10, Bigot and Breit, 2008, to form pure C-10b, C10b-trioxane dimer alcohol 11 in 59% yield. […] Each of benzoate esters 12a-12c in the absence of solvent is thermally stable at the elevated temperature of 60° C. for at least 1 week and at 70° C. for at least 24 h, with less than 5% decomposition detected by ^1H NMR spectroscopy. […]

[5] = Overt toxicity and behavioral change in treated malaria-infected mice (fluoroaryl amide study); type: in vivo; settings: malaria-infected animals cured by trioxane plus mefloquine hydrochloride
Experimental: as §1, §2

[6] = test system: Plasmodium berghei, ANKA strain; assay: Antimalarial efficacy of a single oral dose of trioxane (8 mg/kg) combined with mefloquine hydrochloride (24 mg/kg) in Plasmodium berghei-infected mice (Table 3); type: in vivo; settings: single oral dose 8 mg/kg trioxane + 24 mg/kg mefloquine hydrochloride; for Average Survival (days) After Infection: 3 mice, experiment stopped on day 57
Experimental: (§4) Each trioxane silylamide 14a, 14b, and 16 (0.90 mg) was dissolved in 0.11 mL of 7:3 Tween 80:ethanol and then diluted with 1.10 mL of water for oral administration to 5-week old C57BU6J male mice (from the Jackson Laboratory) weighing 18-19 grams that were infected intraperitoneally on day 0 with the Plasmodium berghei, ANKA strain (2×10^7 parasitized erythrocytes). Woodard et al., 2009. Each of 3 mice in a group was treated orally 24 hours post-infection with a single dose of 0.20 mL (0.20 mL/1.21 mL×0.9 mg=0.15 mg) of diluted compound solution, corresponding to a dose of 8 mg/kg, combined with 24 mg/kg of mefloquine hydrochloride. Determining blood parasitemia levels, as well as monitoring the duration of animal survival compared to survival time of animals receiving no drug, are both widely accepted as measures of a drug's efficacy in antimalarial drug development. […] Animals infected but receiving no drug died on an average of 15 days post-infection. A widely accepted yardstick of cure (i.e., 100% efficacy) is survival of animals to at least day 30 post-infection, with no detectable malaria parasites in the animal's blood at that time.

[7] = Overt toxicity, behavioral change and body weight in treated malaria-infected mice (silylamide study); type: in vivo; settings: malaria-infected animals cured by trioxane plus mefloquine hydrochloride
Experimental: as §4

[8] = test system: Plasmodium berghei, ANKA strain; assay: Antimalarial efficacy of a single oral dose of trioxane (8 mg/kg) combined with mefloquine hydrochloride (24 mg/kg) in Plasmodium berghei-infected mice (Table 3); type: in vivo; settings: mefloquine hydrochloride alone, single oral dose 22 mg/kg
P388 leukemia = settings: NCI Report on NSC 369397, 25 Oct. 1983; cited from earlier work
[9] = test system: 60 cancer cell lines (leukemia, non-small-cell lung, colon, CNS, melanoma, ovarian, renal, prostate, breast); settings: cited from earlier work
Plasmodium berghei = settings: monotherapy, single oral dose 30 mg/kg; data from Vennerstrom et al.; cited from earlier work
[10] = single oral dose 6.8 mg/kg trioxane + 20 mg/kg mefloquine hydrochloride
[11] = single oral dose 6.8 mg/kg trioxane + 20 mg/kg mefloquine hydrochloride, 24 h post-infection, C57BL/6J mice
[12] = single oral dose 13 mg/kg trioxane + 13 mg/kg mefloquine hydrochloride
[13] = mefloquine hydrochloride alone, single oral dose 20 mg/kg
[14] = mefloquine hydrochloride alone, single oral dose 21 mg/kg

CO[C@H]1O[C@@H]2O[C@@]3(C)CC[C@H]4[C@H](C)CC[C@@H]([C@H]1C)[C@@]24OO3 [2b, artemether, reference compound]
% Suppression of Parasitemia (on day 3 post-infection) [1, 10]: 99.8%
Average Survival (days) After Infection [1, 11]: 19.8 days and 19.8 (16, 17, days
% Suppression of Parasitemia (on day 3 post-infection) [1, 12]: 99.7%
Average Survival (days) After Infection [1, 12]: 19.6 (16, 17, days
survival after infection (all mice) ([2]; 7.1 mg/kg trioxane + 21 mg/kg mefloquine hydrochloride): 30 days
No. of mice parasite free (day 30) ([2]; single oral dose 7.1 mg/kg trioxane + 21 mg/kg mefloquine hydrochloride, five mice): 4
% parasitemia on day 30% ([2]; single oral dose 7.1 mg/kg trioxane + 21 mg/kg mefloquine hydrochloride, number of parasitemic mice in brackets): 1.6 (1 mouse) %
weight gain [3]: 10-20%

C[C@H]1[C@@H](CCC(=O)Nc2ccc(F)cc2)O[C@@H]2O[C@]3(C)CC[C@H]4[C@H](C)CC[C@@H]1[C@@]24OO3 [4b, Trioxane Monomer Fluoroanilide]
blood parasitemia of the one mouse not cured, day 30 ([1]; 6.8 mg/kg trioxane + 20 mg/kg mefloquine hydrochloride): 4%
mice completely cured (no parasites in their blood) on day 30 post-infection ([1]; 6.8 mg/kg trioxane + 20 mg/kg mefloquine hydrochloride, five mice): 80%
blood parasitemia of the one mouse not cured, day 30 ([1]; 13 mg/kg trioxane + 13 mg/kg mefloquine hydrochloride): 2%
mice cured (day 30) ([1]; 13 mg/kg trioxane + 13 mg/kg mefloquine hydrochloride, five mice): four
% Suppression of Parasitemia (on day 3 post-infection) ([1]; monotherapy, single oral dose 72 mg/kg trioxane, no mefloquine): 99.0%
Average Survival (days) After Infection ([1]; monotherapy, single oral dose 72 mg/kg trioxane, no mefloquine, 72 mg/kg): 24.4 days and 24.4 (21, 23, days
extended survival time after reinfection, longer than average survival of a newly infected control group ([1]; reinfection of the four cured mice on day 32 after the original infection): approximately four
% Suppression of Parasitemia (on day 3 post-infection) [1, 10]: 99.0%
% Suppression of Parasitemia (on day 3 post-infection) [1, 12]: 99.6%
Average Survival (days) After Infection [1, 12]: 30 days
stable in the absence of solvent at 60° C. ([4]; 60° C.): at least 7 days
stable in the absence of solvent at 70° C. ([4]; 70° C.): at least 1 day
overt toxicity or behavioral change attributable to trioxane drug administration [5]: Neither overt toxicity nor behavioral change

C[C@H]1[C@@H](CCC(=O)NC[Si](C)(C)C)O[C@@H]2O[C@]3(C)CC[C@H]4[C@H](C)CC[C@@H]1[C@@]24OO3 [14a]
% Suppression of Parasitemia (on day 3 post-infection) [6]: >99.5%
parasites in the blood of the surviving mice on day 57 [6]: no parasites were detected
Average Survival (days) After Infection [6]: >57 days
overt toxicity or behavioral change attributable to trioxane drug administration [7]: Neither overt toxicity nor behavioral change

C[C@H]1[C@@H](CCC(=O)NCCC[Si](C)(C)C)O[C@@H]2O[C@]3(C)CC[C@H]4[C@H](C)CC[C@@H]1[C@@]24OO3 [14b]
% Suppression of Parasitemia (on day 3 post-infection) [6]: >99.5%
parasites in the blood of the surviving mice on day 57 [6]: ^aOne mouse died on day 17; the other two mice in this group showed no parasitemia on day 57.
Average Survival (days) After Infection [6]: 44^a days

Cl.OC(c1cc(C(F)(F)F)nc2c(C(F)(F)F)cccc12)C1CCCCN1 (stereo not shown) [Mefloquine, mefloquine hydrochloride, reference compound]
% Suppression of Parasitemia (on day 3 post-infection) [1, 13]: 99.6%
Average Survival (days) After Infection [1, 13]: 17.6 days
No. of mice parasite free (day 30) [2, 14]: 1
suppression of parasitemia (day 3) [2, 14]: 91.5%
% parasitemia on day 30% ([2]; mefloquine hydrochloride alone, single oral dose 21 mg/kg, average of 4 mice, hydrochloride, 21 mg/kg): 25 (4 mice) %
% parasitemia on day 30% ([2]; mefloquine hydrochloride alone, single oral dose 21 mg/kg, average of 4 mice, listed as mefloquine hydrochloride, hydrochloride, 21 mg/kg): 25%
cure of malaria-infected mice [8]: not curative

C[C@@H]1CC[C@H]2[C@@H](C)C(=O)O[C@@H]3O[C@@]4(C)CC[C@@H]1[C@]32OO4 [artemisinin]
activity against P388 leukemia (P388 leukemia): inactive
anticancer activity in 60 cell line panel [9]: modest anticancer activity

C[C@H]1[C@@H](CC(C[C@H]2O[C@@H]3O[C@]4(C)CC[C@H]5[C@H](C)CC[C@@H]([C@H]2C)[C@@]35OO4)C(=O)NCc2ccc(F)cc2)O[C@@H]2O[C@]3(C)CC[C@H]4[C@H](C)CC[C@@H]1[C@@]24OO3 (stereo partly shown) [compound 3, Trioxane Dimer Fluoroaryl Amide]
% Suppression of Parasitemia (on day 3 post-infection) [1, 10]: 99.5%
Average Survival (days) After Infection [1, 11]: 27.4 (22, 25, days
% Suppression of Parasitemia (on day 3 post-infection) [1, 12]: 99.9%
Average Survival (days) After Infection [1, 12]: 24.6 (17, 21, days

CC(C)(N)CNC(=O)C[C@H]1CC[C@]2(CC1)OO[C@]1(O2)C2CC3CC(C2)CC1C3 [compound 9]
% Suppression of Parasitemia (on day 3 post-infection) (Plasmodium berghei): 99.95^b %

C[C@H]1[C@@H](CC(C[C@H]2O[C@@H]3O[C@]4(C)CC[C@H]5[C@H](C)CC[C@@H]([C@H]2C)[C@@]35OO4)C(=O)NC[Si](C)(C)C)O[C@@H]2O[C@]3(C)CC[C@H]4[C@H](C)CC[C@@H]1[C@@]24OO3 (stereo partly shown) [compound 16]
% Suppression of Parasitemia (on day 3 post-infection) [6]: >99.5%
parasites in the blood of the surviving mice on day 57 [6]: no parasites were detected
Average Survival (days) After Infection [6]: >57 days
overt toxicity or behavioral change attributable to trioxane drug administration [7]: Neither overt toxicity nor behavioral change
